Earlier results in patent US11297852B2, “Method for treatment or prevention of gill disease” (NUTRECO IP ASSETS B.V., priority 2015, dated 2022).
Where two headings read alike, the source gives them in different places.

Legend:
[1] = Atlantic salmon
AGD [2] = settings: oral administration two weeks prior to challenge
amoebae = settings: in vitro bath treatment at 10 mg/l, used individually
P. perurans = settings: in feed
AGD [3] = settings: in feed at 25 mg/kg
AGD [4] = settings: oral supplementation
[5] = 7 days after P. perurans challenge

| Compound | amoebae numbers (amoebae) | percent of lamella with lesions compared to control fed fish (P. perurans; 14 and 21 days after challenge) | percent of lamella with lesions compared to control fed fish (P. perurans; [5]) | other results |
| --- | --- | --- | --- | --- |
| CCOC(=O)[C@@H](N)CS [LCEE, L-cysteine ethyl ester] |  |  |  | mucus viscosity [1]: reduce mucus viscosity; progression of AGD associated gill pathology (AGD [2]): significantly delayed the progression |
| CC[C@@H](C(=O)[C@@H](C)[C@@H](O)[C@H](C)[C@@H]1O[C@@H]([C@@H](CC)C(=O)O)CC[C@@H]1C)[C@H]1O[C@]2(C=C[C@@H](O)[C@]3(CC[C@@](C)([C@H]4CC[C@](O)(CC)[C@H](C)O4)O3)O2)[C@H](C)C[C@@H]1C [Salinomycin] | significantly reduced amoebae numbers | no difference | reduced the percent of lamella with lesions |  |
| Oc1c(Cl)cc(Cl)cc1Sc1cc(Cl)cc(Cl)c1O [Bithionol] |  |  |  | AGD associated lesions (AGD [3]): delay and reduction in intensity |
| CC[C@@H](C(=O)[C@@H](C)[C@@H](O)[C@H](C)CCc1ccc(C)c(O)c1C(=O)O)[C@H]1O[C@](CC)([C@H]2CC[C@](O)(CC)[C@H](C)O2)C[C@@H]1C [Lasalocid acid] | significantly reduced amoebae numbers | no difference | reduced the percent of lamella with lesions |  |
| CO[C@@H]1[C@@H](OC)[C@H](C)[C@@](O)(CC(=O)O)O[C@H]1[C@H](C)[C@H]1O[C@@]2(CC[C@@](C)([C@H]3CC[C@@](C)([C@@H]4O[C@@H]([C@H]5O[C@](C)(O)[C@H](C)C[C@@H]5C)C[C@@H]4O[C@@H]4C[C@H](OC)[C@@H](OC)[C@H](C)O4)O3)O2)C[C@H](O)[C@H]1C [Maduramycin] | significantly reduced amoebae numbers | no difference | reduced the percent of lamella with lesions |  |
| glucans |  |  |  | impact on mortality levels (AGD [4]): no significant impact |
| c1ccc([C@H]2CN3CCSC3=N2)cc1 [levamisole] |  |  |  | impact on mortality levels (AGD [4]): no significant impact |
